Measured values: patent publication US20020199220A1, “Methods to propagate plants via somatic embryogenesis and to transfer genes into ornamental statice and other members of the family plumbaginaceae” (priority 2001, published 2002)
“And” between values parts separate entries of the source, which are not always exact repeats. Equal values may be shown once.

Experiments:
Format in all cases: cell-based
[1] = test system: L. sinuatum cotyledon explants; test: Induction of embryogenic calli from cotyledon explants; details: for Callus Description / % Response / Number of Explants responded/cultured: MS medium with 1 mg/l 2,4-D, 0.1 mg/l kinetin; for Callus Description / % Response: 30 days after culture; for % Response: mean of experiments; for Number of Explants responded/cultured: scored 30 days after culture, Exp.1 to 3
Method: (§1) Seeds of perennial statice Limoniurn bellidifolium (Gouan) Durmort.(Statice caspia Willd.) and annual statice Linonium sinuatum (L.) Mill. Cv. Soiree, and other Limonium species were purchased from Park Seed Co. (Greenwood, S.C., U.S.A.). Seeds were surface-sterilized by rinsing in 70% (v/v) ethanol for 30 seconds and in 10% (v/v) commercial bleach for 10 minutes. Following this treatment, they were washed five times in sterile distilled water and germinated under light on half-strength Murashige and Skoog basal medium (MS, Murashige and Skoog, 1962) containing 1.5% (wt./v) sucrose and 0.8% (wt./v) agar (Agar-agar, Sigma, St. Louis, Mo., U.S.A.). The pH was adjusted to 5.8 prior to autoclaving for 5 days to provide the explants.
(§2) Cotyledon and hypocotyl explants were dissected from 5-day old seedlings. The hypocotyls were cut 1 mm below the cotyledonary node and 1 mm above the hypocotyl-root junction to provide 2 mm-long explants. The cotyledons were separated from the cotyledon-petiole junction and halved into 2 to 3 mm long pieces. The explants were cultured, 10 per 100×15 mm Petri plate, on MS medium containing MS mineral salts, B5 vitamins (Gamborg et al. 1968), sucrose (2, 3 or 4% wt./v), 0.1 mg.l^−1 kinetin and 1, 2 or 5 mg.l^−1 2,4-D, pH 5.8. The plates were sealed with parafilm (American National Can, WI) and incubated at 25° C. under 16/8 h (day/night) light regime (PPFD 46 μmol.quanta.m^−2.s^−1, cool white fluorescent lamps). The explants were subcultured every two weeks on the same media.
(§3) Cotyledon explants from L. bellidifolium and L. sinuatum initiated callus within 7-10 days in culture on media containing 1 mg.l^−1 2,4-D and various levels of sucrose. Embryogenic callus was characterized by globular structures, smooth and shiny texture and creamy color. On media containing 1 mg.l^−1 2,4-D and 0.1 mg.l^−1 kinetin, increasing sucrose concentrations increased the induction of well developed embryogenic calli, 4% sucrose being the optimum (see the following Table 1). Some of the cotyledon explants respond with direct somatic embryogenesis without a callus phase. The embryogenic calli produced repetitive globular embryos on the same induction media for both species. Medium containing 4% sucrose was also optimum to induce embryogenic calli from hypocotyl explants (79% response for 28 explants cultured for L. bellidifolium and 86% response for 21 explants cultured for L. sinuatum). On an average, 2-3 somatic embryos developed per explant weekly. At 2% sucrose, friable non-embryogenic callus grew along with less defined embryogenic calli on the same explant.

[2] = test system: L. bellidifolium cotyledon explants; test: as above; details: for Callus Description / % Response / Number of Explants responded/cultured: MS medium with 1 mg/l 2,4-D, 0.1 mg/l kinetin; for Callus Description / % Response: 30 days after culture; for % Response: mean of experiments; for Number of Explants responded/cultured: scored 30 days after culture, Exp.1 to 3
Method: as §1, §2, §3

[3] = test system: somatic embryos from embryogenic calli derived from L. bellidifolium and L. sinuatum cotyledon and hypocotyl explants; test: Maturation and germination of somatic embryos from cultured embryogenic calli; set-up: key to Germination: − = No response; + slow (21-30 days); ++ medium (15-20 days); ++++- Fast (14 days) with 100% maturation and germination; details: for somatic embryo morphology: no growth regulators; for Germination / Maturation: MS medium
Method: For maturation, somatic embryos at late-globular, heart and torpedo stages were subcultured on MS media containing 3% or 4% (wt./v) sucrose with or without 0.1 mg.l^−1 kinetin. Calli differentiating globular embryos were transferred to maturation medium, MS supplemented with 3 or 4% sucrose and 0 or 0.1 mg.l^−1 kinetin. Late globular, heart, torpedo and cotyledonary stages differentiated in these media and with faster and higher response on media with 4% sucrose compared to that on 3% sucrose (see Table 2).
Supplementation of this medium with 0.1 mg/l kinetin induced embryo maturation and germination within 10 to 14 days of subculture compared to more than 21 days on media lacking kinetin.

[4] = test system: L. sinuatum hypocotyl explants; test: Induction of embryogenic calli from hypocotyl explants; details: medium containing 4% sucrose; 21 explants cultured
Method: as §2
(§4) Cotyledon explants from L. bellidifolium and L. sinuatum initiated callus within 7-10 days in culture on media containing 1 mg.l^−1 2,4-D and various levels of sucrose. Embryogenic callus was characterized by globular structures, smooth and shiny texture and creamy color. On media containing 1 mg.l^−1 2,4-D and 0.1 mg.l^−1 kinetin, increasing sucrose concentrations increased the induction of well developed embryogenic calli, 4% sucrose being the optimum (see the following Table 1). Some of the cotyledon explants respond with direct somatic embryogenesis without a callus phase. […]

[5] = test system: L. bellidifolium hypocotyl explants; test: as above; details: medium containing 4% sucrose; 28 explants cultured
Method: as §2, §4

[6] = media containing 1 mg/l 2,4-D and various levels of sucrose

With O=C(O)COc1ccc(Cl)cc1Cl [2,4-D, reference compound] the “time to callus initiation in culture” value [1, 6] was 7 to 10 days and the “time to callus initiation in culture” value [2, 6] was 7 to 10 days.

With OC[C@H]1O[C@@](CO)(O[C@H]2O[C@H](CO)[C@@H](O)[C@H](O)[C@H]2O)[C@@H](O)[C@@H]1O [sucrose] the somatic embryo morphology ([3]; 3% sucrose) was “abnormally long roots with poor shoot development”, the Germination ([3]; 3% sucrose, kinetin 0.0 mg/l) was “−” and the Maturation ([3]; 3% sucrose, kinetin 0.0 mg/l) was “+ (+ slow (21-30 days))”. For the same molecule, the Germination ([3]; 3% sucrose, kinetin 0.1 mg/l) was “++ (++ medium (15-20 days))”, the Maturation ([3]; 3% sucrose, kinetin 0.1 mg/l) was “++ (++ medium (15-20 days))” and the Germination ([3]; 4% sucrose, kinetin 0.0 mg/l) was “+ (+ slow (21-30 days))”. The Maturation ([3]; 4% sucrose, kinetin 0.0 mg/l) was “++ (++ medium (15-20 days))”, the Germination ([3]; 4% sucrose, kinetin 0.1 mg/l) was “++++ (++++- Fast (14 days) with 100% maturation and germination)” and the Maturation ([3]; 4% sucrose, kinetin 0.1 mg/l) was “++++ (++++- Fast (14 days) with 100% maturation and germination)”. The somatic embryo morphology ([3]; sucrose increased to 4%) was “inhibited this abnormal rooting”, the “Callus Description” value ([1]; 2% sucrose) was “W,E,F” and the “% Response” value ([1]; 2% sucrose) was 72%. For the same molecule, the “Number of Explants responded/cultured” value ([1]; 2% sucrose) was 12/19 and 38/44 and 13/20, the “Callus Description” value ([1]; 3% sucrose) was “W/G,B(g,t)” and the “% Response” value ([1]; 3% sucrose) was 79%. The “Number of Explants responded/cultured” value ([1]; 3% sucrose) was 50/61 and 49/74 and 61/69, the “Callus Description” value ([1]; 4% sucrose) was “W/G,B(g,h,t)” and the “% Response” value ([1]; 4% sucrose) was 88%. The “Number of Explants responded/cultured” value ([1]; 4% sucrose) was 42/48 and 32/39 and 37/40, the “Callus Description” value ([2]; 2% sucrose) was “W,E,F” and the “% Response” value ([2]; 2% sucrose) was 75%. For the same molecule, the “Number of Explants responded/cultured” value ([2]; 2% sucrose) was 15/24 and 23/28 and 53/67, the “Callus Description” value ([2]; 3% sucrose) was “W/G,E(g,t)” and the “% Response” value ([2]; 3% sucrose) was 79%. For the same molecule, the “Number of Explants responded/cultured” value ([2]; 3% sucrose) was 46/58 and 53/62 and 48/68, the “Callus Description” value ([2]; 4% sucrose) was “W/G,E(g,h,t)” and the “% Response” value ([2]; 4% sucrose) was 89%. For the same molecule, the “Number of Explants responded/cultured” value ([2]; 4% sucrose) was 29/32 and 1/26 and 39/41, the “response (induction of embryogenic calli)” value [4] was 86% and the “response (induction of embryogenic calli)” value [5] was 79%.
